“And” between values parts separate entries of the source, which are not always exact repeats. Identical values can stand only once. Like-named read-outs stand apart in the source and are kept apart here.
What was measured:
[1] = test system: major CYP450s in HLMs; experiment: Effect on activity of the major CYP450s in human liver microsomes (all isoforms together); settings: final concentration SZ-A 8.899 μg/mL (equivalent to DNJ 20 μM), FA 5 μM, DAB 8 μM
[2] = design: method as in Yang et al., 2017; settings: ref Yang et al., 2017, cited from earlier work; for form excreted: material conservation within 24 h after oral administration of SZ-A; for oral absolute bioavailability / pharmacokinetic profile versus dose: rats; for oral absolute bioavailability: after oral administration of SZ-A; for pharmacokinetic profile versus dose: oral SZ-A 20–500 mg/kg
[3] = Tissue distribution after single oral SZ-A (20 mg/kg) in ICR mice; format: in vivo
Protocol: Twenty SD rats were randomly classified into four groups corresponding to four-time points (5 and 30 min, 4 and 12 h) (n = 20; 5 animals per time point) that received SZ-A solution (40 mg/kg) via oral administration. After the completion of dose administration, plasma and tissue samples (derived from the heart, liver, spleen, lung, kidney, aortic blood vessels, brown adipose tissue, subcutaneous adipose tissue, abdominal adipose tissue, muscle (thigh skeletal muscle), pancreas, and brain) were collected at predetermined time points. Twenty-eight ICR mice were randomly classified into four groups (n = 7 per group) corresponding to four-time points (5 and 30 min, 4 and 12 h) that received SZ-A solution (20 mg/kg) via oral administration. After the completion of dose administration, tissue samples (derived from the heart, liver, spleen, lung, kidney, aortic blood vessels, brown adipose tissue, abdominal adipose tissue, muscle (thigh skeletal muscle), pancreas, and brain) were collected at predetermined time points.
Collected tissue samples were washed with normal saline. The surface moisture was removed by blotting gently with filter paper, and the weight was recorded. After adding an appropriate amount of normal saline, these tissue samples were ground into homogenates using a cryogenic grinder (JX-CL, Shanghai Jingxin, Shanghai, China). The obtained homogenates were stored at −80°C until LC-MS/MS analysis.

[4] = Identification of metabolites in HLMs/RLMs and rat plasma (Q-Extractive high-resolution MS); format: in vitro ADME, human; settings: HLMs/RLMs and rat plasma reaction system
Protocol: Furthermore, 5 μL of the supernatant was collected for LC-MS/MS analysis. The LC-MS/MS conditions were as follows: chromatographic column (XBridge™ Amide, 3.5 µm, 4.6 × 150 mm); mobile phase, water (0.1% ammonia) and acetonitrile, other conditions are the same as those in CYP450s inhibition study, with the following scan parameters: resolution, 70,000; AGC target, 3,000,000; maximum IT, 200 ms; and scan range, 50–600 m/z.

[5] = design: method as in Mackay et al., 2003; settings: rats; ref Mackay et al., 2003; cited from earlier work
[6] = test system: CYP450s in RLMs (other isoenzymes); experiment: Effect on activity of rat liver microsome isoenzymes other than CYP2C11; settings: SZ-A 8.899 μg/mL, DNJ 20 μM, FA 5 μM, DAB 8 μM
[7] = design: method as in Nakagawa et al., 2007; settings: rats, after oral gavage of DNJ; ref Nakagawa et al., 2007; cited from earlier work

Compound | effect on the major CYP450s in HLMs, either inhibition or activation [1] | form excreted [2] | oral absolute bioavailability [2] | pharmacokinetic profile versus dose [2] | distribution in aortic vessels compared with other tissues [3] | tissues with the highest concentrations [3] | metabolites found [4] | form excreted [5] | effect on other isoenzymes in RLMs [6] | DNJ metabolites in plasma [7]
OC[C@H]1NC[C@@H](O)[C@@H]1O [DAB, 1,4-dideoxy-1,4-imino-D-arabinitol] | no significant effect | mainly excreted in their original forms | 78.23% and > 70% | non-linear pharmacokinetics | lower than that in other tissues | kidney, followed by the liver | no detectable phase I and phase II metabolites | mainly excreted unchanged | no obvious effect | 
OC[C@H]1NC[C@H](O)[C@@H](O)[C@@H]1O [DNJ, 1-deoxynojirimycin] | no significant effect | mainly excreted in their original forms | 72.41% and > 70% | non-linear pharmacokinetics | lower than that in other tissues | kidney, followed by the liver | no detectable phase I and phase II metabolites |  | no obvious effect | did not detect any DNJ metabolites
OC[C@H]1NCC[C@@H](O)[C@@H]1O [FA, fagomine] | no significant effect | mainly excreted in their original forms | 77.50% and > 70% | non-linear pharmacokinetics |  | kidney, followed by the liver | only trace oxidation products |  | no obvious effect | 
